# Test results taken from patent US7649093B2, “Naphthalene compounds as selective estrogen receptor modulators” (Glaxo Smith Kline LLC, priority 2004, dated 2010).
row,Compound,melting point [°C]
1,"CCc1cc2cc(O)ccc2c(Oc2ccc(/C=C/C(=O)N3CCN(C)CC3)cc2)c1-c1ccccc1 [Example 12, 7-Ethyl-5-({4-[(1E)-3-(4-methyl-1-piperazinyl)-3-oxo-1-propen-1-yl]phenyl}oxy)-6-phenyl-2-naphthalenol]",195 to 196
2,CCCCc1cc2ccccc2c(Oc2ccc(/C=C/C(=O)O)cc2)c1-c1ccc(O)cc1,107 to 109
3,"CCc1cc2cc(O)ccc2c(Oc2ccc(/C=C/C(=O)O)cc2)c1-c1ccccc1 [Example 11, (2E)-3-{4-[(3-Ethyl-6-hydroxy-2-phenyl-1-naphthalenyl)oxy]phenyl}-2-propenoic acid]",188 to 190
4,"CCCCc1cc2cc(O)ccc2c(Oc2ccc(/C=C/C(=O)O)cc2)c1-c1ccccc1 [Example 14, (2E)-3-{4-[(3-Butyl-6-hydroxy-2-phenyl-1-naphthalenyl)oxy]phenyl}-2-propenoic acid]",128 to 130
5,"CC(C)Cc1cc2cc(O)ccc2c(Oc2ccc(/C=C/C(=O)O)cc2)c1-c1ccccc1 [Example 17, (2E)-3-(4-{[6-Hydroxy-3-(2-methylpropyl)-2-phenyl-1-naphthalenyl]oxy}phenyl)-2-propenoic acid]",126 to 128
6,"CCCCCc1cc2cc(O)ccc2c(Oc2ccc(/C=C/C(=O)O)cc2)c1-c1ccccc1 [Example 18, (2E)-3-{4-[(6-Hydroxy-3-pentyl-2-phenyl-1-naphthalenyl)oxy]phenyl}-2-propenoic acid]",110 to 113
7,"CCCc1cc2cc(O)c(F)cc2c(Oc2ccc(/C=C/C(=O)O)cc2)c1-c1ccccc1 [Example 20, (2E)-3-{4-[(7-Fluoro-6-hydroxy-2-phenyl-3-propyl-1-naphthalenyl)oxy]phenyl}-2-propenoic acid]",118 to 120
8,COCc1cc2ccccc2c(Oc2ccc(/C=C/C(=O)O)cc2)c1-c1ccccc1,76 to 79
9,"CC(C)c1cc2cc(O)ccc2c(Oc2ccc(/C=C/C(=O)O)cc2)c1-c1ccccc1 [Example 13, (2E)-3-(4-{[6-Hydroxy-3-(1-methylethyl)-2-phenyl-1-naphthalenyl]oxy}phenyl)-2-propenoic acid]",198 to 199
10,"Cc1cc2ccccc2c(Oc2ccc(/C=C/C(=O)O)cc2)c1-c1ccccc1 [Example 15, (2E)-3-{4-[(3-Methyl-2-phenyl-1-naphthalenyl)oxy]phenyl}-2-propenoic acid]",224 to 225
11,"CCCc1cc2cc(O)ccc2c(Oc2ccc(/C=C/C(=O)O)cc2)c1-c1ccccc1 [Example 16, (2E)-3-{4-[(6-Hydroxy-2-phenyl-3-propyl-1-naphthalenyl)oxy]phenyl}-2-propenoic acid]",120 to 122
12,"O=C(O)/C=C/c1ccc(Oc2c(-c3ccccc3)c(CCC(F)(F)F)cc3cc(O)ccc23)cc1 [Example 19, (2E)-3-(4-{[6-Hydroxy-2-phenyl-3-(3,3,3-trifluoropropyl)-1-naphthalenyl]oxy}phenyl)-2-propenoic acid]",118 to 120
13,"Cc1cc2cc(O)ccc2c(Oc2ccc(/C=C/C(=O)O)cc2)c1-c1ccc(O)cc1 [Example 10, (2E)-3-(4-{[6-Hydroxy-2-(4-hydroxyphenyl)-3-methyl-1-naphthalenyl]oxy}phenyl)-2-propenoic acid]",162 to 164

# Other lines, results leading:
row,melting point [°C],Compound
1,169 to 170,"CCCCc1cc2ccccc2c(Oc2ccc(/C=C/C(=O)O)cc2)c1-c1ccc(F)cc1 [Example 24, (2E)-3-(4-{[3-Butyl-2-(4-fluorophenyl)-1-naphthalenyl]oxy}phenyl)-2-propenoic acid]"
2,210 to 211,"O=C(O)/C=C/c1ccc(Oc2c(-c3ccccc3)c(C(F)(F)F)cc3ccccc23)cc1 [Example 27, (2E)-3-(4-{[2-Phenyl-3-(trifluoromethyl)-1-naphthalenyl]oxy}phenyl)-2-propenoic acid]"
3,244 to 245,"O=C(O)c1ccc(Oc2c(-c3ccc(O)cc3)c(C(F)(F)F)cc3ccccc23)cc1 [Example 28, 4-{[2-(4-Hydroxyphenyl)-3-(trifluoromethyl)-1-naphthalenyl]oxy}benzoic acid]"
4,242 to 243,"O=C(O)/C=C/c1ccc(Oc2c(-c3ccccc3)c(C3CC3)cc3cc(O)ccc23)cc1 [Example 22, (2E)-3-{4-[(3-Cyclopropyl-6-hydroxy-2-phenyl-1-naphthalenyl)oxy]phenyl}-2-propenoic acid]"
5,163 to 164,"CCCCCCCCc1cc2cc(O)ccc2c(Oc2ccc(/C=C/C(=O)O)cc2)c1-c1ccccc1 [Example 29, (2E)-3-{4-[(6-Hydroxy-3-octyl-2-phenyl-1-naphthalenyl)oxy]phenyl}-2-propenoic acid]"
6,121 to 124,"CCCc1cc2cc(O)c(F)cc2c(Oc2ccc(/C=C/C(N)=O)cc2)c1-c1ccccc1 [Example 25, (2E)-3-{4-[(7-Fluoro-6-hydroxy-2-phenyl-3-propyl-1-naphthalenyl)oxy]phenyl}-2-propenamide]"
7,160 to 161,"CCCCc1cc2ccccc2c(Oc2ccc(/C=C/C(=O)O)cc2)c1-c1ccccc1 [Example 26, (2E)-3-{4-[(3-Butyl-2-phenyl-1-naphthalenyl)oxy]phenyl}-2-propenoic acid]"
